Laboratory results published in ChEMBL document CHEMBL5506049, “Discovery of Novel Small-Molecule-Based Potential PD-L1/EGFR Dual Inhibitors with High Druggability for Glioblastoma Immunotherapy” (J Med Chem, 2024).

How the values were obtained:
cells [1] = details: Homo sapiens, U87MG Human EGFR vIII, 72 h
Description: Antiproliferative activity against human U87vIII cells expressing EGFRvIII incubated for 72 hrs by MTT assay

cells [2] = details: GL261, 72 h
Description: Antiproliferative activity against human GL261 cells incubated for 72 hrs by MTT assay

U-251 = assay: cells; details: Homo sapiens, U-251, 72 h
Description: Antiproliferative activity against human U-251 cells incubated for 72 hrs by MTT assay

U-87 MG = assay: cells; details: Homo sapiens, 72 h
Description: Antiproliferative activity against human U-87 MG cells incubated for 72 hrs by MTT assay

[3] = In vivo antitumor activity against […] GL261 cells xenografted in C57BL/6 mouse assessed as decrease in tumor volume at 100 mg/kg, IG treated for 21 days relative to control; assay type: functional; parameters: scale not given: the % may be the effect or the level left; details: time 21 day
[4] = In vivo antitumor activity against […] GL261 cells xenografted in C57BL/6 mouse assessed as decrease in EGFR phosphorylation in tumor tissue at 100 mg/kg, IG treated for 21 days relative to control; assay type: functional; parameters: scale not given: the % may be the effect or the level left; details: time 21 day
[5] = In vivo antitumor activity against […] GL261 cells xenografted in C57BL/6 mouse assessed as decrease in tumor weight at 100 mg/kg, IG treated for 21 days relative to control; assay type: functional; parameters: scale not given: the % may be the effect or the level left; details: time 21 day
[6] = In vivo antitumor activity against […] GL261 cells xenografted in C57BL/6 mouse assessed as decrease in PD-L1 expression in tumor tissue at 100 mg/kg, IG treated for 21 days relative to control; assay type: functional; parameters: scale not given: the % may be the effect or the level left; details: time 21 day
Glioblastoma cell line [7] = assay: Antitumor immunity against glioblastoma bearing C57BL/6 mouse model assessed as tumor infiltrating lymphocytes by measuring increase in CD3+CD8+T cells at 100 mg/kg, IG (reference value: 3.44%); assay type: functional
[8] = molecular target: Programmed cell death protein 1/Programmed cell death 1 ligand 1 (Homo sapiens, UniProt Q9NZQ7); assay: Inhibition of PD-1/PD-L1 (unknown origin) interaction assessed as inhibition rate incubated for 1 hr by HTRF assay relative to control; assay type: protein-complex assay
Glioblastoma cell line [9] = assay: Antitumor immunity against glioblastoma bearing C57BL/6 mouse model assessed as tumor infiltrating lymphocytes by measuring increase in CD3+CD4+T cells at 100 mg/kg, IG (reference value: 0.91%); assay type: functional

Chain of Programmed cell death protein 1/Programmed cell death 1 ligand 1 (Q15116 whole entry): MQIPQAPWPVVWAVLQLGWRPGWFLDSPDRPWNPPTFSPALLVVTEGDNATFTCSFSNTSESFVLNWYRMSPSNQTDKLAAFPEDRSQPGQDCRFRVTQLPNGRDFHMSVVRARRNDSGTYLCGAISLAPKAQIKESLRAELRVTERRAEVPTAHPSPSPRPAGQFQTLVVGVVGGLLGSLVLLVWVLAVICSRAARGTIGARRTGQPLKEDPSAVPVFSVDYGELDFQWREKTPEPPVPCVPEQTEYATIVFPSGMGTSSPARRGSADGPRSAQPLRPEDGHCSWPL
Chain of Programmed cell death protein 1/Programmed cell death 1 ligand 1 (Q9NZQ7 whole entry): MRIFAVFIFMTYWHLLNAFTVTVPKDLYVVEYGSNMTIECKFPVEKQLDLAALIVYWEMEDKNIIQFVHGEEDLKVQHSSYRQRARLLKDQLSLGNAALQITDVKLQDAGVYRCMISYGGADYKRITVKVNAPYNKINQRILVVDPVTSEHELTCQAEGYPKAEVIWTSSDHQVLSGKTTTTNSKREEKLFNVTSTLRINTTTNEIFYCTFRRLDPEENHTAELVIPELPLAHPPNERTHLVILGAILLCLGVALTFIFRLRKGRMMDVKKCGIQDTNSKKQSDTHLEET

Row | SMILES | IC50 (cells [1]) | IC50 (cells [2]) | IC50 (U-251) | IC50 (U-87 MG) | Activity [3] | Activity [4] | Activity [5] | Activity [6] | Activity (Glioblastoma cell line [7]) | IC50 [8] | Activity (Glioblastoma cell line [9])
1 | COc1cc(OCc2cccc(-c3ccccc3)c2C)ccc1CNCCCCOc1cc2c(Nc3ccc(F)c(Cl)c3)ncnc2cc1OC | 800 nM | 1970 nM | 1470 nM | 2600 nM | – | – | – | – | – | – | –
2 | COc1cc2ncnc(Nc3ccc(F)c(Cl)c3)c2cc1OC(=O)N1CCN(Cc2c(OC)cc(OCc3cccc(-c4ccccc4)c3C)cc2OC)CC1 | > 20000 nM | > 20000 nM | > 20000 nM | > 20000 nM | – | – | – | – | – | – | –
3 | COc1cc2ncnc(Nc3ccc(F)c(Cl)c3)c2cc1OCCCCCNCc1c(OC)cc(OCc2cccc(-c3ccccc3)c2C)cc1OC | 440 nM | 2240 nM | 1040 nM | 1350 nM | – | – | – | – | – | – | –
4 | COc1cc(OCc2cccc(-c3ccccc3)c2C)ccc1CNCCCCOc1cc2c(Nc3cccc(Cl)c3F)ncnc2cc1OC | 290 nM | 1240 nM | 1290 nM | 840 nM | – | – | – | – | – | – | –
5 | COc1cc2ncnc(Nc3ccc(F)c(Cl)c3)c2cc1OCCCN1CCOCC1 [GEFITINIB] | – | – | – | – | 71.2% | ~30% | 77.2% | ~15% | – | – | –
6 | COc1cc2ncnc(Nc3ccc(F)c(Cl)c3)c2cc1OCCCCCCNCc1c(OC)cc(OCc2cccc(-c3ccccc3)c2C)cc1OC | 540 nM | 2760 nM | 1550 nM | 2850 nM | – | – | – | – | – | – | –
7 | COc1cc2ncnc(Nc3ccc(F)c(Cl)c3)c2cc1OCCCCCCCCNCc1ccc(-c2cccc(-c3ccccc3)c2C)nc1OC | 2010 nM | 3300 nM | 3530 nM | 1150 nM | – | – | – | – | – | – | –
8 | COc1cc2ncnc(Nc3ccc(F)c(Cl)c3)c2cc1OCCNCc1ccc(-c2cccc(-c3ccccc3)c2C)nc1OC | 1140 nM | 6860 nM | 2640 nM | 5760 nM | – | – | – | – | – | – | –
9 | COc1cc2ncnc(Nc3ccc(F)c(Cl)c3)c2cc1OCCCCCNC(=O)C1CCCCN1Cc1ccc(-c2cccc(-c3ccccc3)c2C)nc1OC (configuration not stated) | > 20000 nM | > 20000 nM | > 20000 nM | > 20000 nM | – | – | – | – | – | – | –
10 | COc1cc2ncnc(Nc3ccc(F)c(Cl)c3)c2cc1OC(=O)N1CCN(Cc2ccc(-c3cccc(-c4ccccc4)c3C)nc2OC)CC1 | > 20000 nM | > 20000 nM | > 20000 nM | > 20000 nM | – | – | – | – | – | – | –
11 | COc1cc2ncnc(Nc3ccc(F)c(Cl)c3)c2cc1OCCCCCCNC(=O)C1CCCCN1Cc1ccc(OCc2cccc(-c3ccccc3)c2C)c(C)c1 (configuration not stated) | > 20000 nM | > 20000 nM | > 20000 nM | > 20000 nM | – | – | – | – | – | – | –
12 | COc1cc2ncnc(Nc3ccc(F)c(Cl)c3)c2cc1OCCCCCCNC(=O)CCN(C)Cc1ccc(-c2cccc(-c3ccccc3)c2C)nc1OC | > 20000 nM | > 20000 nM | > 20000 nM | > 20000 nM | – | – | – | – | – | – | –
13 | Cc1c(COc2cc(OCc3cccc(C#N)c3)c(CNC(C)(C)C(=O)O)cc2Cl)cccc1-c1ccccc1 | > 20000 nM | > 20000 nM | > 20000 nM | > 20000 nM | 71.1% | – | 77.2% | – | 19.7% | 56.2 nM | 24.7%
14 | COc1cc2ncnc(Nc3ccc(F)c(Cl)c3)c2cc1OCCCCNCc1c(OC)cc(OCc2cccc(-c3ccccc3)c2C)cc1OC | 360 nM | 1790 nM | 1330 nM | 860 nM | – | – | – | – | – | – | –
15 | COc1cc2ncnc(Nc3ccc(F)c(Cl)c3)c2cc1OCCCCCCNCc1ccc(-c2cccc(-c3ccccc3)c2C)nc1OC | 730 nM | 3250 nM | 1870 nM | 1080 nM | – | – | – | – | – | – | –
16 | COc1cc2ncnc(Nc3ccc(F)c(Cl)c3)c2cc1OCCCCCCCCNC(=O)CN(C)Cc1c(OC)cc(OCc2cccc(-c3ccccc3)c2C)cc1OC | > 20000 nM | > 20000 nM | > 20000 nM | > 20000 nM | – | – | – | – | – | – | –
17 | COc1cc2ncnc(Nc3ccc(F)c(Cl)c3)c2cc1OCCCNCc1c(OC)cc(OCc2cccc(-c3ccccc3)c2C)cc1OC | 1390 nM | 2390 nM | 1470 nM | 1060 nM | – | – | – | – | – | – | –
18 | COc1cc2ncnc(Nc3ccc(F)c(Cl)c3)c2cc1OCCCNCc1ccc(-c2cccc(-c3ccccc3)c2C)nc1OC | 820 nM | 2630 nM | 5120 nM | 1080 nM | – | – | – | – | – | – | –
19 | COc1cc(OCc2cccc(-c3ccccc3)c2C)ccc1CNCCCOc1cc2c(Nc3ccc(F)c(Cl)c3)ncnc2cc1OC | 960 nM | 5460 nM | 3490 nM | 4010 nM | – | – | – | – | – | – | –
20 | COc1cc2ncnc(Nc3ccc(F)c(Cl)c3)c2cc1OCCCCNCc1ccc(OCc2cccc(-c3ccccc3)c2C)c(C)c1 | 730 nM | 2250 nM | 1380 nM | 890 nM | – | – | – | – | – | – | –
21 | COc1cc2ncnc(Nc3ccc(F)c(Cl)c3)c2cc1OCCNCc1c(OC)cc(OCc2cccc(-c3ccccc3)c2C)cc1OC | 2840 nM | 3220 nM | 1960 nM | 3330 nM | – | – | – | – | – | – | –
22 | COc1nc(OCc2cccc(-c3ccccc3)c2C)ccc1CNCCNC(C)=O | 8030 nM | 5720 nM | 2980 nM | 3720 nM | – | – | – | – | – | – | –
23 | COc1cc2ncnc(Nc3ccc(F)c(Cl)c3)c2cc1OCCCCCNC(=O)C1CCCCN1Cc1c(OC)cc(OCc2cccc(-c3ccccc3)c2C)cc1OC (configuration not stated) | > 20000 nM | > 20000 nM | > 20000 nM | > 20000 nM | – | – | – | – | – | – | –
24 | COc1cc2ncnc(Nc3ccc(F)c(Cl)c3)c2cc1OCCCCNC(=O)C1CCCCN1Cc1ccc(-c2cccc(-c3ccccc3)c2C)nc1OC (configuration not stated) | > 20000 nM | > 20000 nM | > 20000 nM | > 20000 nM | – | – | – | – | – | – | –
25 | COc1cc2ncnc(Nc3ccc(F)c(Cl)c3)c2cc1OCCCCCNCc1ccc(-c2cccc(-c3ccccc3)c2C)nc1OC | 530 nM | 2160 nM | 1350 nM | 3380 nM | – | – | – | – | – | – | –
26 | COc1cc2ncnc(Nc3ccc(F)c(Cl)c3)c2cc1OCCCCCCNC(=O)C1CCCCN1Cc1c(OC)cc(OCc2cccc(-c3ccccc3)c2C)cc1OC (configuration not stated) | > 20000 nM | > 20000 nM | > 20000 nM | > 20000 nM | – | – | – | – | – | – | –
27 | COc1cc2ncnc(Nc3ccc(F)c(Cl)c3)c2cc1OCCCCNCc1ccc(-c2cccc(-c3ccccc3)c2C)nc1OC | 2610 nM | 2720 nM | 2850 nM | 1030 nM | – | – | – | – | – | – | –
28 | COc1cc2ncnc(Nc3ccc(F)c(Cl)c3)c2cc1OCCCCCNC(=O)CN(C)Cc1c(OC)cc(OCc2cccc(-c3ccccc3)c2C)cc1OC | 3120 nM | > 20000 nM | > 20000 nM | 5160 nM | – | – | – | – | – | – | –
